Assay results published in patent US8084621B2, “3-Pyrrolo[b]cyclohexylene-2-dihydroindolinone derivatives and uses thereof” (Jiangsu Simcere Pharmaceutical R&D Co. Ltd., priority 2006, dated 2011).

Legend:
Format in all cases: cell-based
[1] = tested on: Human Bladder Cancer Cell Line (T24); experiment: Tumor cell proliferation assay (MTT), T24; conditions: for inhibition at 10 µM: concentration of 10^−5 mol/L, preliminary screening, 72 hours, read-out: Inhibition rate % T24; for IC50: secondary screening, 48 hours
Text: (§1) The assay used generally is the blue tetrazolium bromide (MTT) method. […] The amount of formazan can be detected by the microplate reader through the absorption value at 570 nm. The amount of formazan product generated is proportional to the number of living cells in the sample, so the OD value may reflect the number of living cells and the ability of a test drug to inhibit or kill cells. The MTT assay may be used in determining the ability of different compounds of the present invention to inhibit one or more cancer cells proliferation. Similar assays can be designed along the same lines for any cancer cell using techniques well known in the art.
(§2) The assay used generally is the blue tetrazolium bromide (MTT) method. […] Intracellular purple formazan salt crystals can be solved in DMSO and the absorption value at 570 nm is detected by the microplate reader, then the number of living cells can be detected indirectly. So MTT assay may be used to determine the ability of a compound of the present invention to inhibit cell proliferation. Similar assays can be designed along the same lines for any cancer cell using techniques well known in the art.
2.2.7 Human Bladder Cancer Cell Line (T24);
(§3) The cells of 2.2.6, 2.2.7 cultured in RPMI 1640 medium containing 12% fetal bovine serum in the condition of 37° C., 5% CO2.
(§4) 2.3.1 Cell seeding: Trypsinize the cell by 0.05% trypsin-EDTA and add RPMI 1640 medium (DMEM or 5A) containing 12% calf serum. Count the number, then dilute to 1.67×10^4/ml. Add 180 ul/well to the 96 well plate (3000 cells/well).
(§5) 2.3.2 Culture: cells are incubated for 24 hours at 37° C. under 5% CO2.
(§6) 2.3.3 Preliminary screening: The compounds are firstly diluted to 0.1 mol/L with DMSO, and then diluted to three concentrations of 10^−5 mol/L, 10^−6 mol/L and 10^−7 mol/L. Add 20 ul test compounds to the 96 well plate and incubate for 72 hours. Each group has three parallel wells and all experiments repeat three times. Each inhibition ratio is calculated, then an average value of three times is taken as the measured value. 2.3.4 Staining 2.3.4.1 Attached cell: add 20 ul/well MTT to the 96-well plates; incubate for 4 hours in the incubator. Pour out the culture medium in the well and add 100 ul/well DMSO. Shake the plate for 5 min. 2.3.4.2 Suspension cell: add 20 ul/well MTT to the 96-well plates; incubate for 4 hours in the incubator. Add 50 ul/well 20% SDS and incubate for overnight in the incubator. 2.3.5 Reading the plates: read the absorbance A570-A630 with the Infinite M200 microtiter plate reader. Calculate the inhibition ratio of the test compounds. 2.3.6 Secondary screening: the compounds whose inhibition ratio is greater than 50% at the concentrations of 10^−5 mol/L in the preliminary screening will be picked out for Secondary screening. Dilute these compounds to ten concentrations: 10^−5 mol/L, 0.5×10^−5 mol/L, 10^−6 mol/L, 0.8×10^−6 mol/L, 0.6×10^−6 mol/L, 0.4×10^−6 mol/L, 0.2×10^−6 mol/L, 10^−7 mol/L, 0.8×10^−7 mol/L and 0.4×10^−7 mol/L. Add 20 ul test compound solution to the 96 well plate and incubate for 48 hours. Each group has three parallel wells and all experiments repeat for three times. Read the plates and calculate the inhibition ratio according to the preliminary screening method. 2.3.7 Calculate the Inhibition Ratio of Cell Proliferation and the IC50
(§7) According to the inhibition ratio of cell proliferation at the different concentrations of the compound, inhibition ratio of 50% of the test compound is calculated through the logarithm of the concentration of the compound with the Logit [I] linear regression, and an average value of three times is taken as the measured value of a sample.

[2] = tested on: Human Ovarian Cancer Cell Line (SK-OV-3); experiment: Tumor cell proliferation assay (MTT), SK-OV-3; conditions: for inhibition at 10 µM: concentration of 10^−5 mol/L, preliminary screening, 72 hours, read-out: Inhibition rate % SK-OV-3; for IC50: secondary screening, 48 hours
Text: as §1, §2
2.2.13 Human Ovarian Cancer Cell Line (SK-OV-3).
(§8) The cells of 2.2.11, 2.2.12, 2.2.13 were cultured in MC COYS 5-A medium containing 12% fetal bovine serum in the condition of 37° C., 5% CO2.
as §4, §5, §6, §7

[3] = tested on: Human Non-Small Cell Lung Cancer Cell Line (A549); experiment: Tumor cell proliferation assay (MTT), A549; conditions: for inhibition at 10 µM: concentration of 10^−5 mol/L, preliminary screening, 72 hours, read-out: Inhibition rate % A549; for IC50: secondary screening, 48 hours
Text: as §1, §2
2.2.2 Human Non-Small Cell Lung Cancer Cell Line (A549)
(§9) The cells of the 2.2.1, 2.2.2, 2.2.3, 2.2.4, 2.2.5 cultured with RPMI 1640 containing 12% calf serum in the condition of 37° C., 5% CO2.
as §4, §5, §6, §7

[4] = tested on: Human Pancreatic Carcinoma Cells (PANC-1); experiment: Tumor cell proliferation assay (MTT), PANC-1; conditions: for inhibition at 10 µM: concentration of 10^−5 mol/L, preliminary screening, 72 hours, read-out: Inhibition rate % PANC-1; for IC50: secondary screening, 48 hours
Text: as §1, §2
2.2.4 Human Pancreatic Carcinoma Cells (PANC-1)
as §9, §4, §5, §6, §7

[5] = tested on: Human Colon Cancer Cell Line (HT-29); experiment: Tumor cell proliferation assay (MTT), HT29; conditions: for inhibition at 10 µM: concentration of 10^−5 mol/L, preliminary screening, 72 hours, read-out: Inhibition rate % HT29; for IC50: secondary screening, 48 hours
Text: as §1, §2
2.2.11 Human Colon Cancer Cell Line (HT-29);
as §8, §4, §5
as §6, with “2.3.6 Secondary screening: the compounds whose inhibition ratio is greater than 50% at the concentrations of 10^−5 mol/L in the preliminary screening will be picked out for Secondary screening.” left out
as §7

[6] = tested on: Human Pancreatic Carcinoma Cell Line (BXPC-3); experiment: Tumor cell proliferation assay (MTT), BXPC-3; conditions: for inhibition at 10 µM: concentration of 10^−5 mol/L, preliminary screening, 72 hours, read-out: Inhibition rate % BXPC-3; for IC50: secondary screening, 48 hours
Text: as §1, §2
2.2.6 Human Pancreatic Carcinoma Cell Line (BXPC-3);
as §3, §4, §5
as §6, with “2.3.6 Secondary screening: the compounds whose inhibition ratio is greater than 50% at the concentrations of 10^−5 mol/L in the preliminary screening will be picked out for Secondary screening.” left out
as §7

[7] = tested on: Human Hepatocellular Carcinoma Cell Line (HEPG2); experiment: Tumor cell proliferation assay (MTT), HEPG2; conditions: for inhibition at 10 µM: concentration of 10^−5 mol/L, preliminary screening, 72 hours, read-out: Inhibition rate % HEPG2; for IC50: secondary screening, 48 hours
Text: as §1, §2
2.2.8 Human Hepatocellular Carcinoma Cell Line (HEPG2);
The cells of 2.2.8, 2.2.9 cultured in DMEM/High glucose medium containing 12% calf serum in the condition of 37° C., 5% CO2.
as §4, §5, §6, §7

[8] = tested on: Human Small Cell Lung Cancer Cell Line (NCI-H446); experiment: Tumor cell proliferation assay (MTT), NCI-H446; conditions: for inhibition at 10 µM: concentration of 10^−5 mol/L, preliminary screening, 72 hours, read-out: Inhibition rate % NCI-H446; for IC50: secondary screening, 48 hours
Text: as §1, §2
2.2.5 Human Small Cell Lung Cancer Cell Line (NCI-H446)
as §9, §4, §5, §6, §7

[9] = tested on: Human Gastric Cancer Cell Line (BGC); experiment: Tumor cell proliferation assay (MTT), BGC; conditions: for inhibition at 10 µM: concentration of 10^−5 mol/L, preliminary screening, 72 hours, read-out: Inhibition rate % BGC; for IC50: secondary screening, 48 hours
Text: as §1, §2
2.2.1 Human Gastric Cancer Cell Line (BGC)
as §9, §4, §5, §6, §7

[10] = tested on: Human Colon Cancer Cell Line (CACO-2); experiment: Tumor cell proliferation assay (MTT), CACO-2; conditions: concentration of 10^−5 mol/L, preliminary screening, 72 hours, read-out: Inhibition rate % CACO-2
Text: as §1, §2
2.2.10 Human Colon Cancer Cell Line (CACO-2)
The cell of 2.2.10 cultured in DMEM/High glucose medium containing 12% fetal bovine serum in the condition of 37° C., 5% CO2.
as §4, §5, §6, §7

[11] = tested on: Human Colon Cancer Cell Line (HCT 116); experiment: Tumor cell proliferation assay (MTT), HCT116; conditions: concentration of 10^−5 mol/L, preliminary screening, 72 hours, read-out: Inhibition rate % HCT116
Text: as §1, §2
2.2.12 Human Colon Cancer Cell Line (HCT 116);
as §8, §4, §5, §6, §7

[12] = tested on: Human Leukemia Line (K562); experiment: Tumor cell proliferation assay (MTT), K562; conditions: concentration of 10^−5 mol/L, preliminary screening, 72 hours, read-out: Inhibition rate % K562
Text: as §1, §2
2.2.3 Human Leukemia Line (K562)
as §9, §4, §5, §6, §7

Compound | inhibition at 10 µM [1] | inhibition at 10 µM [3] | inhibition at 10 µM [4] | inhibition at 10 µM [5] | inhibition at 10 µM [6] | inhibition at 10 µM [7] | inhibition at 10 µM [9] | inhibition at 10 µM [10] | further results
CCN(CC)CC(O)CNC(=O)c1c(C)[nH]c2c1CCC/C2=C1/C(=O)Nc2ccc(Cl)cc21 (stereo not drawn) [I-65, N-(3-(diethylamino)-2-hydroxypropyl)-2-methyl-7-[1,2-dihydro-5-chloro-2-oxo-3H-indol-(Z)-3-ylidene]-4,5,6,7-tetrahydro-1H-indole-3-carboxamide] | 97.9% | 85% | 98.1% | 98.3% | 99.2% | 100% | 91.1% |  | IC50 [1]: 2.73 µM; inhibition at 10 µM [2]: 95.7%; IC50 [2]: 2.23 µM; IC50 [3]: 2.38 µM; IC50 [4]: 1.67 µM; IC50 [5]: 3.06 µM; IC50 [6]: 1.15 µM; IC50 [7]: 2.8 µM; inhibition at 10 µM [8]: 99%; IC50 [8]: 1.5 µM; IC50 [9]: 1.72 µM
Cc1[nH]c2c(c1C(=O)N1CCOCC1)CCC/C2=C1/C(=O)Nc2ccccc21 [I-12, 2-methyl-3-(morpholine-4-carbonyl)-7-[1,2-dihydro-2-oxo-3H-indol-(Z)-3-ylidene]-4,5,6,7-tetrahydro-1H-indole] | 14.6% | 1.1% | 23.3% | 78.4% | 29.5% | 12.8% | 31.9% | 11.7% | inhibition at 10 µM [11]: 36.5%
Cc1[nH]c2c(c1C(=O)N1CCOCC1)CCC/C2=C1/C(=O)Nc2ccc(Cl)cc21 [I-11, 2-methyl-3-(morpholine-4-carbonyl)-7-[1,2-dihydro-5-chloro-2-oxo-3H-indol-(Z)-3-ylidene]-4,5,6,7-tetrahydro-1H-indole] | 0% |  |  |  |  | 2.92% |  |  | 
Cc1[nH]c2c(c1C(=O)N1CCN(C)CC1)CCC/C2=C1/C(=O)Nc2ccccc21 [I-13, 2-methyl-3-(4-methylpiperazine-1-carbonyl)-7-[1,2-dihydro-2-oxo-3H-indol-(Z)-3-ylidene]-4,5,6,7-tetrahydro-1H-indole] | 9.04% | 3.82% | 0% | 63.2% | 42.4% | 46% | 11.1% | 9.79% | 
Cc1[nH]c2c(c1C(=O)NCC(O)CN1CCCCC1)CCC/C2=C1/C(=O)Nc2ccc(Cl)cc21 (stereo not drawn) [I-75, N-(2-hydroxy-3-(piperidin-1-yl)propyl)-2-methyl-7-[1,2-dihydro-5-chloro-2-oxo-3H-indol-(Z)-3-ylidene]-4,5,6,7-tetrahydro-1H-indole-3-carboxamide] | 99.9% | 40.1% | 53.6% | 67.3% | 73.1% | 99% | 45.4% |  | IC50 [1]: 3.99 µM; inhibition at 10 µM [2]: 49.2%; IC50 [2]: 5.69 µM; IC50 [3]: 14.5 µM; IC50 [4]: 3.58 µM; IC50 [5]: 5.17 µM; IC50 [6]: 4.47 µM; IC50 [7]: 3.59 µM; inhibition at 10 µM [8]: 44.1%; IC50 [8]: 9.25 µM; IC50 [9]: 11.1 µM
Cc1[nH]c2c(c1C(=O)N1CCOCC1)CCC/C2=C1/C(=O)Nc2ccc(F)cc21 [I-10, 2-methyl-3-(morpholine-4-carbonyl)-7-[1,2-dihydro-5-fluoro-2-oxo-3H-indol-(Z)-3-ylidene]-4,5,6,7-tetrahydro-1H-indole] | 27.5% | 7.64% | 11.7% | 30.9% | 51.7% | 43.5% | 15.2% | 0% | 
CCOC(=O)c1c(C)[nH]c2c1CCC/C2=C1/C(=O)Nc2ccc(F)cc21 [I-1, ethyl 2-methyl-7-[1,2-dihydro-5-fluoro-2-oxo-3H-indol-(Z)-3-ylidene]-4,5,6,7-tetrahydro-1H-indole-3-carboxylate] |  |  |  |  |  |  |  |  | inhibition at 10 µM [12]: 28.6%
Cc1[nH]c2c(c1C(=O)N(C)C)CCC/C2=C1/C(=O)Nc2ccccc21 [I-15, N,N,2-trimethyl-7-[1,2-dihydro-2-oxo-3H-indol-(Z)-3-ylidene]-4,5,6,7-tetrahydro-1H-indole-3-carboxamide] | 74.8% |  |  |  |  | 61.1% |  |  | 
